Test results from ChEMBL document CHEMBL1201862, “PubChem BioAssay data set” (2004).
The source made the active and inactive calls.

Assays:
Cytochrome P450 2C19 = Cytochrome P450 2C19 (Homo sapiens, UniProt P33261); test: Cytochrome panel assay with activity outcomes. Panel member name: p450-cyp2c19 Compounds with AC50 equal or less than 10 uM are considered active; type: functional; conditions: read-out: AC50
Protein skinhead-1 = target: T1, Protein skinhead-1 (Caenorhabditis elegans, UniProt P34707); type: functional
T1 sequence (P34707 whole entry): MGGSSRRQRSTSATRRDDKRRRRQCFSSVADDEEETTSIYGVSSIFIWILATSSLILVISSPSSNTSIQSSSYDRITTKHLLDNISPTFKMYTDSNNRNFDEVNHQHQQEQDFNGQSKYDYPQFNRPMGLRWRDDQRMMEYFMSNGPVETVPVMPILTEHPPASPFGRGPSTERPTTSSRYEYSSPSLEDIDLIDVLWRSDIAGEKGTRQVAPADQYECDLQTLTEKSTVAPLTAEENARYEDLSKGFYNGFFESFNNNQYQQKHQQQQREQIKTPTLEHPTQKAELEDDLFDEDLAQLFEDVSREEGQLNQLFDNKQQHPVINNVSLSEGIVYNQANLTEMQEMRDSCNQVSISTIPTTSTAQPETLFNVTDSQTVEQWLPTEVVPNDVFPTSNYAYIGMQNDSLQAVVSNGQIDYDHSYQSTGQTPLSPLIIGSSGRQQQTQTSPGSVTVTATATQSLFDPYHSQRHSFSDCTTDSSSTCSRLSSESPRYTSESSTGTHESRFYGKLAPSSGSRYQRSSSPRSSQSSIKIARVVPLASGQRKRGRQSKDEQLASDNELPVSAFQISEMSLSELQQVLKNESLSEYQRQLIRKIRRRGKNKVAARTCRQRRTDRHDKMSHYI

[1] = HEp-2 cell cytotoxicity, dose response, cytotoxicity control for RSV inhibitor project, HTS (AID 2410); type: functional; conditions: human respiratory syncytial virus
[2] = inhibitors of intracellular T. cruzi replication, confirmation, NIH3T3 host cells, beta-gal luminescence (AID 2044); type: functional, cell-based;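 further: intracellular parasites grown in NIH/3T3 mouse fibroblasts as host cells; luminescent beta-galactosidase reporter signal from transgenic T. cruzi replicating inside host cells; inhibitors lower the luminescence signal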
[3] = microbe, parasite or virus in culture; type: functional; conditions: Mycobacterium tuberculosis
[4] = cytotoxicity toward NIH3T3 fibroblasts, dose response, counter-screen, cell-based, ATP luminescence, mouse fibroblasts (AID 2010); type: functional;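 further: cells exposed to compound for about 90 hours before reading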
[5] = target: Heat shock protein HSP 90-alpha (Homo sapiens, UniProt P07900); type: functional, organism-based
[6] = Shn3 3'UTR reporter inhibitors, dose response, cell-based, Clone20 osteoblasts, firefly luciferase, cherry-picked (AID 624132); type: functional;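 further: firefly luciferase luminescence from reporter carrying the Shn3 3'UTR in osteoblasts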
[7] = control 3'UTR Renilla luciferase suppression, dose response, counter-screen for Shn3 inhibitor project, cell-based, Clone20-Shn3RL, cherry-picked (AID 624133); type: functional
[8] = HepG2 cell cytotoxicity, dose response, cytotoxicity control for Shn3 inhibitor project, CellTiter-Glo, cherry-picked (AID 624134); type: functional, cell-based
Estrogen receptor beta = Estrogen receptor beta (Homo sapiens, UniProt Q92731);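 further: recombinant ER-beta bound to coactivator SRC1 peptide in presence of estradiol agonist; inhibitors block coactivator peptide binding and lower the FRET signal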
[9] = THP-1 cell cytotoxicity, dose response, cytotoxicity control for Vif-APOBEC3G degradation inhibitor project, THP-1 cells (AID 1117359); type: functional; conditions: Human immunodeficiency virus 1, THP-1
[10] = NIH-3T3 fibroblast cytotoxicity, dose response, cytotoxicity control, cell-based, fluorescence, Alamar Blue, secondary assay (AID 2327); type: functional;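 further: NIH-3T3 mouse fibroblasts cultured with fluconazole at 8 µg/mL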
[11] = C. albicans growth with fluconazole, confirmation, fluorescence, retest (AID 2467); type: functional, cell-based
[12] = target: T2, Type-1 angiotensin II receptor (Homo sapiens, UniProt P30556); test: AT1 receptor antagonists, dose response, selectivity assay for APJ receptor antagonist project, cell-based, uHTS hits (AID 463214); type: functional;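 further: antagonist potency against angiotensin II stimulated AT1 response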
T2 sequence (P30556 whole entry): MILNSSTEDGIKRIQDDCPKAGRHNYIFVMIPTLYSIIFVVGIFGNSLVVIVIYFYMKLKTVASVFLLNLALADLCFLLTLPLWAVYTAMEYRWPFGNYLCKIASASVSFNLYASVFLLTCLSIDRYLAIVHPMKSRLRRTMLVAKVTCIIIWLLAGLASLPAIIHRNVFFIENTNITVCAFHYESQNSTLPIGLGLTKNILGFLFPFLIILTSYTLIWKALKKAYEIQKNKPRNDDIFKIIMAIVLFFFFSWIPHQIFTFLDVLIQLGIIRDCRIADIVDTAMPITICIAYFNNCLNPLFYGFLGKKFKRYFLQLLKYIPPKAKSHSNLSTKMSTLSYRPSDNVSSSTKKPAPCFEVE

Leucine aminopeptidase = target: T3, Leucine aminopeptidase (Plasmodium falciparum 3D7, UniProt Q8IL11); test: P. falciparum M17LAP inhibitors, primary screen, biochemical, fluorogenic H-Leu-NHMec substrate, 1536-well (AID 1619); type: functional
T3 sequence (Q8IL11 whole entry): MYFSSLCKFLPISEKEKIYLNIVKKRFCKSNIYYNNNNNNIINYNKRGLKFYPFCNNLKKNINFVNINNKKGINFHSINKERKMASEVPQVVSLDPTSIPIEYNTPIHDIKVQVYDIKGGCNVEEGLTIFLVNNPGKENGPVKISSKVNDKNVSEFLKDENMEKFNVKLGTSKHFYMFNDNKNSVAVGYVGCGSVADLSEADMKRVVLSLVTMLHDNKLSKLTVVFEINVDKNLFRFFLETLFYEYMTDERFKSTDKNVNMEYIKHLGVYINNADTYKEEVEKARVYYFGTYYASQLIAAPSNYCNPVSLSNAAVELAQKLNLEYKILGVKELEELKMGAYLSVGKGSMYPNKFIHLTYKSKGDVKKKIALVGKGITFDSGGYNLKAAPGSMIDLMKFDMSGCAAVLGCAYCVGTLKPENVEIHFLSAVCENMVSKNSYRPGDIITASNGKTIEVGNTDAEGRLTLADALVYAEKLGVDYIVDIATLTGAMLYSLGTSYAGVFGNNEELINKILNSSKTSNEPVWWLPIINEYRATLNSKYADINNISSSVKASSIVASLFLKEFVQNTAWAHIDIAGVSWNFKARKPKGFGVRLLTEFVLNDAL

Beta-galactosidase = Beta-galactosidase (Escherichia coli, UniProt Q8VNN2); test: PubChem AID 485352; type: functional
[13] = intracellular Trypanosoma cruzi inhibitors in host cells – cell-based, plate reader, cherry-pick samples, set 3, dose response (AID 651818); type: functional;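 further: compounds incubated with infected cells for about four days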
[14] = cytotoxicity in OVCAR8 ovarian cancer cells, dose response, PAX8 project, cell-based, plate reader, dry powder samples (AID 743197); type: functional; conditions: OVCAR-8
Paired box protein Pax-8 = Paired box protein Pax-8 (Homo sapiens, UniProt Q06710); test: inhibitors of PAX8-driven TPO luciferase reporter, dose response, RMG-I cells, cherry-pick (AID 687027); type: functional, cell-based;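 further: luciferase reporter driven by Pax8 target thyroperoxidase promoter measured by SteadyGlo luminescence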
[15] = NIH:OVCAR-3 ovarian cancer cell cytotoxicity, dose response, PAX8 inhibitor project, plate reader, dry powder samples (AID 743044); type: functional, cell-based
[16] = growth suppression of PTEN-null colon cells, dose response, cell-based, HCT116 PTEN knockout (AID 1047); type: functional;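 further: HCT116 colon tumor cells with PTEN knocked out; cells exposed to compound for 60 hours before readout; potency for loss of cell viability measured by luminescence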
[17] = growth suppression of beta-catenin-knockout colon cells, dose response, cell-based, HCT116, human colon tumor (AID 1045); type: functional;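 further: HCT116 colon tumor cells with beta catenin knocked out; cells exposed to compound for 60 hours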

Chain of Paired box protein Pax-8 (Q06710 whole entry): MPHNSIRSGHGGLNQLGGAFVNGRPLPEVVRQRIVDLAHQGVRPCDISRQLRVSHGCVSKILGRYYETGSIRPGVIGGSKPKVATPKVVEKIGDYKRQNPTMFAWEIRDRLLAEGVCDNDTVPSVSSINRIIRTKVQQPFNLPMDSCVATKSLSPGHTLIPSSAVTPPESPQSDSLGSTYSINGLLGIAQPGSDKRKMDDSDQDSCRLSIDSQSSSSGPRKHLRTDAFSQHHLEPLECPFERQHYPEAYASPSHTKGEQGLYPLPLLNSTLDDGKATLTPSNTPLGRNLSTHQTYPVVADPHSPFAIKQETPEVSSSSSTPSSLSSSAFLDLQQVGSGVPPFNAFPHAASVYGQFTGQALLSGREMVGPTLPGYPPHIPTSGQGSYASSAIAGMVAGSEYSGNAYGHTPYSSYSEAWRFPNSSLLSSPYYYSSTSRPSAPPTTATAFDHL
Chain of Cytochrome P450 2C19 (P33261 whole entry): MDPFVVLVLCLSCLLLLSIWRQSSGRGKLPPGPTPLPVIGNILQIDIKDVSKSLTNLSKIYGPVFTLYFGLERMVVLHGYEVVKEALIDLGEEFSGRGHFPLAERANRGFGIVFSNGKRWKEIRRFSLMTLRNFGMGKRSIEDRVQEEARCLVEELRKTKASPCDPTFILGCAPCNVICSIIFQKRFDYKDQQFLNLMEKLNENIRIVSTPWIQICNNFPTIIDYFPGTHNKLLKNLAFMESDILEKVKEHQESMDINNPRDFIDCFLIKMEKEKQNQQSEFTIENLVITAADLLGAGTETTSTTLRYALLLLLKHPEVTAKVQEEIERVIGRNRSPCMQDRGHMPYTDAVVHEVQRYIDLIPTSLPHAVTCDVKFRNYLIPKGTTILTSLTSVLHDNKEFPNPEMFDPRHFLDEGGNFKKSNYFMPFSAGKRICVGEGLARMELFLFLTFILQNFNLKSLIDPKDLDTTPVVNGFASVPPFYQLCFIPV
Chain of Beta-galactosidase (Q8VNN2 whole entry): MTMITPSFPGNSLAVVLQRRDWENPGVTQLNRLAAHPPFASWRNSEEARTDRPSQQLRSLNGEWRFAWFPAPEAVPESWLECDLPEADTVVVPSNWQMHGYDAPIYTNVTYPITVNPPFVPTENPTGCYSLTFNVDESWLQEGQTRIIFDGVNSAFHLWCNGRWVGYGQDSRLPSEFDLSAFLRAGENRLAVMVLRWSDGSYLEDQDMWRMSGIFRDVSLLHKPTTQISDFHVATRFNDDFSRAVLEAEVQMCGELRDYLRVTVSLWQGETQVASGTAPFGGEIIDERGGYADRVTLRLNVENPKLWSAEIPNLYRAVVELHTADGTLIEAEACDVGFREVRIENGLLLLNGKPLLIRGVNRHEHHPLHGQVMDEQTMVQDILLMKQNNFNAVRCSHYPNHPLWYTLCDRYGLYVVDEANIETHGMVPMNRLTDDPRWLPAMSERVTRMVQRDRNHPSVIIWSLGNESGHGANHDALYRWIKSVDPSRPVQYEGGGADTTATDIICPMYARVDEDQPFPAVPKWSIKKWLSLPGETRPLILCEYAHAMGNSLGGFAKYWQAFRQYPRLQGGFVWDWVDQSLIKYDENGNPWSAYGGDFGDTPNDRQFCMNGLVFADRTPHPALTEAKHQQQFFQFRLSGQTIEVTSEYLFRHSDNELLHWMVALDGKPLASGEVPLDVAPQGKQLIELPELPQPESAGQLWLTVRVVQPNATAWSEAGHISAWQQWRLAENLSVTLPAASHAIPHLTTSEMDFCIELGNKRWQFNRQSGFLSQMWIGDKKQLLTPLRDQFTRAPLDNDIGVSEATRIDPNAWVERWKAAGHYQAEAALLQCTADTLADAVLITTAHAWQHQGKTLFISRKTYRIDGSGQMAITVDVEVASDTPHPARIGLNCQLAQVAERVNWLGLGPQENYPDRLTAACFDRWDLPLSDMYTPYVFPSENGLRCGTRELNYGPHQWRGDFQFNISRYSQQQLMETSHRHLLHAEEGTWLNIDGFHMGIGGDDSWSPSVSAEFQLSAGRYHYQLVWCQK
Chain of Estrogen receptor beta (Q92731 whole entry): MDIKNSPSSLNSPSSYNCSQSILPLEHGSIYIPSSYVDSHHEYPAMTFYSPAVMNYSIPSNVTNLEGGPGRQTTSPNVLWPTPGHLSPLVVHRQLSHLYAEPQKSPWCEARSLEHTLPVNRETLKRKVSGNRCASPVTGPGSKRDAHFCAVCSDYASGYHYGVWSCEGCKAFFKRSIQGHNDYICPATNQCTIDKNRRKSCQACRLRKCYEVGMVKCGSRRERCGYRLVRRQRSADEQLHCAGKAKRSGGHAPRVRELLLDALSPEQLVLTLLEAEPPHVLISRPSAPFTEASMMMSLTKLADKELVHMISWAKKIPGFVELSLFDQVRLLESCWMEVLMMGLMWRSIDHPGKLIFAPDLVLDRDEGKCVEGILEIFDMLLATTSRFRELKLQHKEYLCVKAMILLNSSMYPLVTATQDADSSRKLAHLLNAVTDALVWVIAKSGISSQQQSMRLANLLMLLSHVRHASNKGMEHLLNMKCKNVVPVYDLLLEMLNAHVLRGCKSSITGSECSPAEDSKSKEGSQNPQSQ

Q: For `CCOc1ccc2nc(NC(=O)c3ccc(S(=O)(=O)N4CCOCC4)cc3)sc2c1`, which AC50 (Cytochrome P450 2C19) is on record?
A: 2.82 µM (inconclusive)

Q: And the IC50 (Protein skinhead-1)?
A: > 100 µM (inactive)

Q: For `O=C(Nc1ccc(SC(F)F)cc1)c1ccccc1F`, which CC50 [1] is on record?
A: > 50 µM (active)

Q: What about the IC50 (Protein skinhead-1) of the same molecule?
A: 23.1 µM (active)

Q: Which EC50 [2] does the source give for `CC1(c2cc([N+](=O)[O-])cc([N+](=O)[O-])c2)CC(C)(C)N(C(=O)c2ccccc2)c2ccccc21` (stereo unspecified) here?
A: 0.17 µM (active)

Q: What about the CC50 [3] of the same molecule?
A: > 40 µM (active)

Q: And the EC50 [4]?
A: 10.7 µM (active)

Q: With `Cc1cccc2cc(CN(Cc3nnnn3C3CCCCC3)C3CCCC3)c3nnnn3c12` as the molecule, how does the AC50 [5] read?
A: 2.18 µM (active)

Q: Which AC50 [6] does the source give for `COc1ccc(-n2nnnc2-c2cnc(N3CCCC3)nc2C(F)(F)F)cc1` here?
A: 4.75 µM (active)

Q: And the AC50 [7]?
A: 4.77 µM (active)

Q: And the AC50 [8]?
A: 50.8 µM (active)

Q: For `c1ccc(-c2nc(-c3ccncc3)no2)cc1`, which IC50 (Protein skinhead-1) is on record?
A: 16.3 µM (active)

Q: For `O=C(NCc1ccc2c(c1)OCO2)c1ccc(Br)cc1`, which AC50 [5] is on record?
A: 4.38 µM (active)

Q: With `C=CCn1c(SCc2cc(C(=O)OC)c(C)o2)nnc1-c1ccncc1` as the molecule, how does the IC50 (Estrogen receptor beta) read?
A: > 50 µM (not active)

Q: Which CC50 [9] does the source give for `CCCCc1ccc(NC(=O)CC(C)(C)C)cc1` here?
A: > 40 µM (active)

Q: Which results are given for `COC(=O)c1ccc(C(=O)OC)c(NC(=O)CSc2cccc[n+]2[O-])c1`?
A: EC50 [10]: > 160 µM (inconclusive); CC50 [3]: > 40 µM (active); EC50 [11]: 1.34 µM (active)

Q: For `COc1ccccc1NC(=O)c1ccc(CN2CCOCC2)cc1`, which IC50 (Protein skinhead-1) is on record?
A: > 100 µM (inactive)

Q: For `CCN(CC)CC(=O)c1ccc(-c2ccccc2)cc1`, which IC50 [12] is on record?
A: 18.8 µM (active)

Q: And the IC50 (Leucine aminopeptidase)?
A: 60.2 µM (active)

Q: What about the EC50 (Beta-galactosidase) of the same molecule?
A: > 40 µM (inactive)

Q: Which IC50 (Protein skinhead-1) does the source give for `O=S(=O)(c1ccc(N2CCCC2)cc1)C(F)(F)F` here?
A: > 100 µM (inactive)

Q: For `Cc1sc(NC(=O)C2=COCCO2)nc1-c1ccc(Cl)cc1`, which IC50 (Protein skinhead-1) is on record?
A: > 100 µM (inactive)

Q: For `C[C@H]1CN([C@@H](C)CO)C(=O)Cc2cc(NC(=O)Nc3cccc4ccccc34)ccc2O[C@@H]1CN(C)Cc1ccc(C(F)(F)F)cc1`, which AC50 [13] is on record?
A: 2.3 µM (active)

Q: For `Cc1cc(C(=O)Nc2cccc3c2O[C@@H](CN(C)Cc2ccc(C(=O)Nc4ccccc4N)cc2)[C@@H](C)CN([C@H](C)CO)C3=O)n(C)n1`, which AC50 [13] is on record?
A: 2.45 µM (active)

Q: For `C[C@@H]1CN([C@@H](C)CO)C(=O)Cc2cc(NC(=O)Nc3ccc(C(F)(F)F)cc3)ccc2O[C@@H]1CN(C)Cc1ccc(Cl)c(Cl)c1`, which AC50 [13] is on record?
A: 1.85 µM (active)

Q: For `C[C@H](CO)N1C[C@H](C)[C@H](CN(C)S(=O)(=O)c2cccs2)Oc2c(NC(=O)c3cnccn3)cccc2C1=O`, which AC50 [13] is on record?
A: 2.44 µM (active)

Q: For `C[C@@H]1CN([C@H](C)CO)C(=O)c2cccc(NC(=O)Nc3ccc(C(F)(F)F)cc3)c2O[C@@H]1CN(C)Cc1ccc(Cl)c(Cl)c1`, which AC50 [13] is on record?
A: 2.26 µM (active)

Q: With `C[C@H](CO)N1C[C@H](C)[C@H](CN(C)Cc2ccc(Oc3ccccc3)cc2)Oc2c(NC(=O)CCCCCC(=O)Nc3ccccc3N)cccc2C1=O` as the molecule, how does the AC50 [13] read?
A: 2.36 µM (active)

Q: With `C[C@H]1CN([C@@H](C)CO)C(=O)c2cc(NS(=O)(=O)c3ccc(Cl)cc3)ccc2O[C@H]1CN(C)Cc1ccc(Cl)c(Cl)c1` as the molecule, how does the AC50 [14] read?
A: > 70 µM (inactive)

Q: What about the AC50 (Paired box protein Pax-8) of the same molecule?
A: 7.5 µM (active)

Q: For `C[C@@H]1CN([C@H](C)CO)C(=O)c2cc(NC(=O)Nc3ccc(C(F)(F)F)cc3)ccc2O[C@@H](C)CCCCO[C@H]1CN(C)C(=O)NC1CCCCC1`, which AC50 [14] is on record?
A: 47.2 µM (active)

Q: What about the AC50 [15] of the same molecule?
A: 27.4 µM (active)

Q: What about the AC50 (Paired box protein Pax-8) of the same molecule?
A: 2.8 µM (active)

Q: With `C[C@H](CO)N1C[C@H](C)[C@@H](CN(C)C(=O)C2CCCCC2)OCCCC[C@H](C)Oc2ccc(NS(=O)(=O)c3ccc(Cl)cc3)cc2C1=O` as the molecule, how does the AC50 [15] read?
A: 24.4 µM (active)

Q: And the AC50 (Paired box protein Pax-8)?
A: 8.51 µM (active)

Q: Which CC50 [3] does the source give for `C/C(=C\C(=S)Nc1ccccc1)Nc1ccc2ccccc2c1` here?
A: 36.2 µM (active)

Q: Which CC50 [9] does the source give for `CC(C)N(C(=O)CO/N=C/c1cccc([N+](=O)[O-])c1)C(C)C` here?
A: > 40 µM (active)

Q: For `CCNc1nc(NC(C)(C)C)nc(N2CCCC2)n1`, which EC50 [16] is on record?
A: 25 µM (active)

Q: And the EC50 [17]?
A: 32.9 µM (active)
